The source of these data is ChEMBL document CHEMBL3507680, “University of Dundee, Gates Library screen for HepG2 cell viability”.

The data set is described as follows: Human HepG2 cell viability assay in 384 well format. Type of data set: toxicity, cell-based. The arrangement: dose 125 nL, time 70.5 hour; cytotoxicity at 70.5 h: concentration not given beside the values. The following applies: HepG2 cells, read-out: Inhibition.

Structures are written as SMILES.

As to `Cc1ccc2c(c1)C(=O)CC1(CCN(Cc3ccccc3)CC1)O2`, the cytotoxicity at 70.5 h was -2.96%.

On to `CN(C)C(=O)CN1CCC2(CC1)CC(=O)c1c(ccc3ccccc13)O2`, for which the cytotoxicity at 70.5 h is -1.64%.

Consider `NC(=O)CN1CCC2(CC1)CC(=O)c1ccc3ccccc3c1O2`, for which the cytotoxicity at 70.5 h was -2.33%.

Consider `CCOC(=O)CN1CCC2(CC1)CC(=O)c1ccc3ccccc3c1O2`, for which the cytotoxicity at 70.5 h was -5.23%.

Take `O=C(NCCc1ccncc1)c1cccnc1OCC(F)(F)F`: the cytotoxicity at 70.5 h was -1.85%.

`O=C(NCCOCCO)c1cccnc1Oc1ccc(Cl)cc1`: the cytotoxicity at 70.5 h was found to be 16.6%.

As for `O=C(c1cccnc1Oc1ccc(Cl)cc1)N1CC[C@@H](O)C1`, the cytotoxicity at 70.5 h worked out at 24.9%.

Regarding `COCCNC(=O)c1cccnc1Oc1ccc(Cl)cc1`, the cytotoxicity at 70.5 h is -7.58%.

As for `O=C(NC[C@H]1CCCC[C@H]1O)c1cccc2[nH]c(-c3ccco3)nc12`, the cytotoxicity at 70.5 h stood at 15.3%.

Consider `CC(=O)N1N=C(c2ccccc2)OC1C(=O)N(C)CCc1ccccc1` (stereo not given), for which the cytotoxicity at 70.5 h came out at 20%.

Consider `CC(=O)N1N=C(c2ccccc2)OC1C(=O)NCCc1cccc(F)c1` (stereo not given), for which the cytotoxicity at 70.5 h came out at 4.79%.

On to `CC(=O)N1N=C(c2ccco2)OC1C(=O)NCC(C)C` (stereo not given), for which the cytotoxicity at 70.5 h is -4.23%.

For the compound `Cc1cc(Cl)ccc1-n1ncc(C(=O)N(C)CCc2ccccn2)c1N`, the cytotoxicity at 70.5 h is 49.3%.

As to `CC1(C)OCC(CNC(=O)c2cnn(-c3cccc(Cl)c3Cl)c2N)O1` (stereo not given), the cytotoxicity at 70.5 h stood at 17%.

Consider `CC(C)c1ccc(-n2ncc(C(=O)NCC3COC(C)(C)O3)c2N)cc1` (stereo not given), for which the cytotoxicity at 70.5 h came to 26.2%.

On to `CN(CCc1ccccn1)C(=O)c1cnn(-c2ccccc2F)c1N`, for which the cytotoxicity at 70.5 h came to 7.25%.

Take `Cc1ccc(-n2ncc(C(=O)NC3CC(C)(C)NC(C)(C)C3)c2N)cc1`: the cytotoxicity at 70.5 h worked out at 19.8%.

In the case of `CCOC(=O)C1CCN(C(=O)c2cnn(-c3ccc(C)cc3)c2N)CC1`, the cytotoxicity at 70.5 h was -5.44%.

Take `Cc1ccc(-n2ncc(C(=O)N(C)C3CCN(C)CC3)c2N)cc1C`: the cytotoxicity at 70.5 h stood at 8.36%.

In the case of `Cc1nn(-c2cc(Cl)cc(Cl)c2)c(C)c1CCC(=O)O`, the cytotoxicity at 70.5 h was -5.45%.

On to `Cc1nn(-c2ccccc2Cl)c(C)c1CCC(=O)O`, for which the cytotoxicity at 70.5 h was 4.21%.

Consider `CCOc1ccc(NC(=O)C2OC(c3cccs3)=NN2C(C)=O)cc1` (stereo not given), for which the cytotoxicity at 70.5 h turned out to be 11.5%.

On to `CC(=O)N1N=C(c2cccs2)OC1C(=O)Nc1ccc(C(C)C)cc1` (stereo not given), for which the cytotoxicity at 70.5 h was -2.48%.

Turning to `CCN(CC)CCNC(=O)CCc1c(C)nn(-c2cccc(Cl)c2)c1C`, the cytotoxicity at 70.5 h amounted to 0.617%.

For `CCOC(=O)CNC(=O)Cn1c(-c2ccoc2)nc(C)c1C`, the cytotoxicity at 70.5 h is 3.16%.

As to `CN(CCC(O)c1ccccc1)Cc1nc(-c2ccccc2)no1` (stereo not given), the cytotoxicity at 70.5 h was -7.98%.

For the compound `CN(CCC(O)c1ccccc1)Cc1ccccc1C#N` (stereo not given), the cytotoxicity at 70.5 h was -5.67%.

For `Nc1c(N2CCCCC2)ncnc1N1CCOCC1`, the cytotoxicity at 70.5 h is 1.26%.

Regarding `CN(C)C(=O)c1cc2ncc(C(=O)NC3CC3)cc2n1C`, the cytotoxicity at 70.5 h was -1.06%.

Take `CC(=O)c1cc2ncc(C(=O)NC3CCCCC3)cc2[nH]1`: the cytotoxicity at 70.5 h turned out to be 0.178%.

On to `CNC(=O)c1cnc2c(C)csc2c1`, for which the cytotoxicity at 70.5 h came out at 22%.

On to `Cc1csc2cc(C(=O)NC3CC3)cnc12`, for which the cytotoxicity at 70.5 h was -1.57%.

For the compound `COCCCNC(=O)c1cn(C(C)(C)C)c2ncccc12`, the cytotoxicity at 70.5 h is -5.22%.

As for `O=C(c1cn(Cc2ccccc2)c2ncccc12)N1CCOCC1`, the cytotoxicity at 70.5 h turned out to be 2.42%.

Turning to `CN1CCN(C(=O)c2cn(Cc3ccccc3)c3ncccc23)CC1`, the cytotoxicity at 70.5 h was -3.43%.

As for `O=C(NCCN1CCCCC1)C(c1ccccc1)N1CCCC1` (stereo not given), the cytotoxicity at 70.5 h is 2.81%.

For `CCN(CC)CCNC(=O)CCc1c(C)nn(-c2ccccc2Br)c1C`, the cytotoxicity at 70.5 h worked out at 8.21%.

For the compound `N#CCCN(CC1CCCO1)C(=O)c1ccc(C#N)cc1` (stereo not given), the cytotoxicity at 70.5 h was -2.77%.

On to `N#CCCN(CC1CCCO1)C(=O)c1ccc2nonc2c1` (stereo not given), for which the cytotoxicity at 70.5 h is 0.813%.

Take `N#CCCN(CC1CCCO1)C(=O)c1ccsc1` (stereo not given): the cytotoxicity at 70.5 h was -4.29%.

Turning to `O=C(NCCn1cccc1)C(c1ccccc1)N1CCCC1` (stereo not given), the cytotoxicity at 70.5 h is 1.81%.

On to `CC(C)(C)C(=O)CN1CCc2ccccc2NCCC1=O`, for which the cytotoxicity at 70.5 h turned out to be 3.4%.

With `COc1ccc2c(c1)CN(Cc1ccco1)C(=O)CCN2CC(C)(C)O`, the cytotoxicity at 70.5 h worked out at 1.21%.

On to `COc1ccccc1CN1CC(O)CN(C(=O)OCC(C)C)CC1=O` (stereo not given), for which the cytotoxicity at 70.5 h is -10.9%.

As for `CS(=O)(=O)N1CC(=O)N(CCCc2ccccc2)CC(O)C1` (stereo not given), the cytotoxicity at 70.5 h was -8.69%.

Turning to `CCS(=O)(=O)N1CC(=O)N(CCCc2ccccc2)CC(O)C1` (stereo not given), the cytotoxicity at 70.5 h was -3.91%.

Turning to `COc1ccc(CC(=O)N2CC(=O)NCC(C)(C)C2)cc1`, the cytotoxicity at 70.5 h amounted to 14.8%.

As for `O=S1(=O)c2cccnc2OC(COc2ccccc2)CN1CC1CC1` (stereo not given), the cytotoxicity at 70.5 h is -2.28%.

For the compound `O=S1(=O)c2cccnc2OC(Cc2ccccc2)CN1CC1CC1` (stereo not given), the cytotoxicity at 70.5 h came to 1.6%.

`CC(C)(C)OCC1CN(Cc2cccs2)S(=O)(=O)c2cnccc2O1` (stereo not given): the cytotoxicity at 70.5 h is -2.07%.

Consider `COCC1CN(Cc2ccc(OC)cc2)S(=O)(=O)c2cnccc2O1` (stereo not given), for which the cytotoxicity at 70.5 h is -3.12%.

As to `COCCN1CCc2ccccc2NCCC1=O`, the cytotoxicity at 70.5 h is -6.61%.

For the compound `O=C(N1CCOCC1)N1C(CN2CCOCC2)[C@]2(O)CC[C@H]1CC2` (stereo not given in full), the cytotoxicity at 70.5 h was determined as 3.03%.

`CNC(=O)CN(C(=O)c1ccccc1)[C@H]1C[C@H]2CCOC[C@H]2C1`: the cytotoxicity at 70.5 h was -1.15%.

As for `CCN1CC2(CCCCN2C(=O)C2CCCCC2)CC1=O` (stereo not given), the cytotoxicity at 70.5 h was -7.76%.

For `Cc1cccc(CN2CCc3[nH]nc(C(=O)N4CCOCC4)c3C2)n1`, the cytotoxicity at 70.5 h turned out to be 0.815%.

With `N#CC1(C(=O)N2Cc3cc(-c4cc[nH]n4)ccc3C2c2cnco2)CC1` (stereo not given), the cytotoxicity at 70.5 h is 1.75%.

Take `COCCNC(=O)c1ccnn1-c1ccc2ccccn12`: the cytotoxicity at 70.5 h was -4.72%.

As to `COCCCN1CC2(CCCCN2C(=O)COC)CC1=O` (stereo not given), the cytotoxicity at 70.5 h is -8.44%.

For `CCc1ccc(CN2CCc3[nH]nc(C(=O)N4CCNC(=O)C4)c3C2)o1`, the cytotoxicity at 70.5 h was -11.8%.

Take `CN(Cc1cccs1)C1CCC[C@@H]2CN(C(=O)c3cccn3C)C[C@H]12` (stereo not given in full): the cytotoxicity at 70.5 h was -12.3%.

On to `CCN1C[C@@H]2CN(C(=O)C3CC=CC3)C[C@@H]2C1=O`, for which the cytotoxicity at 70.5 h came out at 28%.

Turning to `O=C(O)c1c(NC2CCC2)ncc2c1CCN(C1CCOC1)C2` (stereo not given), the cytotoxicity at 70.5 h is -6.13%.

Consider `Cc1ccc(N2CCN(CC3CC3)C3(CCN(C(C)C)CC3)C2=O)cn1`, for which the cytotoxicity at 70.5 h was -5.52%.

Take `Cc1ccc(CN2CCc3[nH]nc(C(=O)N4CCNC(=O)C4)c3C2)s1`: the cytotoxicity at 70.5 h came out at 3.82%.

As for `Cn1ccnc1NC[C@@H]1CCC[C@@H]2CN(Cc3nccs3)C[C@@H]21`, the cytotoxicity at 70.5 h is -0.236%.

In the case of `CC(C)n1c(C(=O)N2CCCC2)nc2c1CCN(C)C2`, the cytotoxicity at 70.5 h was -5.23%.

On to `CN1CCc2c(CNc3ncccn3)n[nH]c2C1`, for which the cytotoxicity at 70.5 h came to 49.1%.

Turning to `Cc1nnc([C@@H]2CC[C@@H]3[C@@H](CCN3Cc3ccccn3)O2)o1`, the cytotoxicity at 70.5 h came to 10.5%.

As for `CN(C)CC(=O)N1CCC2(CCc3ccc(-c4ccncc4)cc32)CC1`, the cytotoxicity at 70.5 h amounted to 3.66%.
